Values joined by “and” are separate entries in the source; they are usually repeats but may differ in a detail not shown here. Identical values can stand only once. Like-named read-outs stand apart in the source and are kept apart here.

What is called Ki is the equilibrium dissociation constant of an inhibitor or competing ligand from its target.

Assay [1] deals with T1, AeOBP22 (Aedes aegypti, UniProt Q1HRL7).
T1 construct: The mature form of AeOBP22 lacking the N-terminal signal peptide was expressed and purified as previously described; made in house
T1 sequence (Q1HRL7 17-138): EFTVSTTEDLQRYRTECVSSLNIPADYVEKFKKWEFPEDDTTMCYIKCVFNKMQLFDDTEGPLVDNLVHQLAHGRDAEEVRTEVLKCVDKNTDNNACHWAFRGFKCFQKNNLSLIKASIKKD
The experiment in a line: 1-NPN fluorescent reporter binding. Conditions: result in words.

Assay [2] concerns the target T1, AeOBP22. The experiment in a line: NMR 1H-15N HSQC ligand screening / chemical shift perturbation. Format: binding. As to conditions: protein 100 μM, sodium phosphate pH 6.5; for binding to AeOBP22 judged by NMR: result in words. The protocol:
NMR experiments were performed at 25 °C on a either a Varian 900 MHz DD2, Varian INOVA 600 MHz or Bruker Avance Neo 600 MHz spectrometer. Samples for NMR were dissolved in sodium phosphate (20 mM, pH 6.5) and 90% H2O/10% D2O, with DSS (4,4-dimethyl-4-silapentane-1-sulfonic acid) (80 μM) added as an internal reference,[90]. For ligand screening, protein concentration was 100 μM and ligands were added to a concentration of 200–500 μM. For chemical shift assignments, relaxation rate measurements and structure calculations, protein concentrations were in the 400–700 μM range. All NMR experiments were collected using non uniform sampling methods[91] using the Poisson-gap sampling schemes implemented by Hyberts et al.[92] with a sampling density of 25–50%. Data were processed using the istHMS package v2111[93],[94] in combination with NmrPipe[95] and analyzed using Ccpnmr Analysis v 2.4.2[96].
Chemical shift assignments for the complex with arachidonic acid and the backbone assignments for the apo-protein were previously reported. Backbone ^1H, ^15N, ^13Cα and ^13Cβ assignments for nonadecanoic, linoleic acid (pH 4.5 and pH 6.5), and decanoic acids were made in the same way. All other backbone amide assignments were made by following chemical shift trajectories as a function of ligand concentration or chain length. Normalized chemical shift differences are reported as[97],[98]1 Δδ=(ΔδH^2+0.14∗ΔδN^2)

Assay [3] has as its target T1, AeOBP22. The experiment in a line: DAF based competition binding assay (recovery of DAF fluorescence by fatty acids). Conditions: for Kd: pH 8.0 (HEPES 50 mM pH 8.1), 25 °C, ± s.d., n = 3. The protocol:
Binding affinities were determined by monitoring the recovery of DAF florescence as a function of fatty acid concentration. Stock solutions of fatty acid were made by dissolving the fatty acid in 100% DMSO, and then making a 1:1000 dilution into HEPES (50 mM pH 8.1). Samples were vortexed prior to each titration point. The protein/DAF solution contained fixed concentrations of DAF (100 nM) and AeOBP22 (1000 nM).
As there is a single binding site for the fatty acid and the effect of fluorescence quenching can be completely reversed by increasing concentrations of fatty acids, we concluded that the fatty acid is directly competitive with binding of the DAF reporter. Therefore, the term for KD in Eq. 2 can be replaced with Eq. 3.3 Kapp=KD(1+I/KI) where I is the concentration of the competitor and KI is the dissociation constant of the competitor. The emission maxima were fit using Eq. 2 substituted into Eq. 1, with the concentration of the protein and DAF fixed at their known concentrations.

Assay [4] concerns the target T1, AeOBP22. Description: DAF fluorescence quenching titration with AeOBP22 (direct binding). Conditions: for Kd: direct titration, fluorescence quenching at 513 nm, n = 7. The method, then:
All fluorescence experiments were recorded at 25 °C on a Horiba Fluorolog 3–1–1 spectrofluorometer. DAF spectra were acquired using an excitation wavelength of 490 nm and the emission recorded between 500 and 560 nm at 1 nm intervals with an integration time of 1 s and slit widths of 2 nm. Stock solutions of DAF (Thermo Fisher, Batch D-109) were prepared in methanol with potassium hydroxide (0.2 M) and the concentration measured by UV spectroscopy using an extinction coefficient of 88000 M^−1 cm^−1 at 497 nm provided in the certificate of analysis. A 1:100 dilution was made into HEPES (50 mM, pH 8.1) and the sample vortexed and checked by UV to verify the DAF concentration. A solution of DAF (~80–100 nM) was titrated with increasing AeOBP22 to a final concentration of ~4 μM. The fluorescence intensity (cps) at the emission maxima (513 nm) was plotted against the total concentration of AeOBP22 and the KD for DAF was determined by fitting the raw fluorescence intensity for each replicate to Eq. (1):2 Fi=F0(1−([PT+LT+KD]−[PT+LT+KD]^2−4PTLT)/2LT)−Fmin where Fi is the measured fluorescence, F0 is the initial fluorescence in the absence of any protein, PT is the total protein, LT is the total concentration of DAF, and Fmin is the residual fluorescence after maximal quenching by the protein.

For assay [5], the target named is T1, AeOBP22. The experiment in a line: DAF based competition binding assay (recovery of DAF fluorescence by fatty acids).
[6] abbreviates: DAF competition, DAF 100 nM, protein 1000 nM, read-out: KD (nM) for binding of fatty acids to AeOBP22.
Setting [7] is: KD (nM) for binding of fatty acids to AeOBP22, DAF competition, DAF 100 nM, protein 1000 nM.
Where [8] appears, read: DAF competition, DAF 100 nM, protein 1000 nM, pH 8.0, n = 3, read-out: KI (dissociation constant of the competitor).

Take `c1ccc(Nc2cccc3ccccc23)cc1` [1-NPN]: at AeOBP22 [1], the “binding of 1-NPN reporter to AeOBP22” value is listed as “bound with low affinity”. Regarding `CCCCCCCC/C=C\CCCCCCCC(=O)OC[C@@H](O)COP(=O)(O)O` [C16-LPA, lyso-phosphatidic acid], the “binding to AeOBP22 judged by NMR” value at AeOBP22 [2] is “failed to identify”. Regarding `O=C(O)CCCCCCCCCCCCCCCO` [C16-OH, 16-hydroxy-hexadecanoic acid], the “competition for binding of the fluorescent reporter (DAF)” value on AeOBP22 [3] (result in words) is “does not compete”. `CCCCCCCCCCCCCCCC(=O)O` [C16:0, palmitic acid]: the Kd on AeOBP22 [3] (setting [6]) is 689 ± 89 nM. Still for that read-out and setting: with `CCCCCC/C=C\CCCCCCCC(=O)O` [C16:1, palmitoleic acid] the figure was 175 ± 41 nM. Still for that read-out and setting: as for `CCCCCCCC/C=C\CCCCCCCC(=O)O` [C18:1, Oleic acid], the figure is 85 nM and 84 nM. With `CCCCC/C=C\C/C=C\CCCCCCCC(=O)O` [C18:2, linoleic acid], on AeOBP22 [3], the Ki was 104 ± 30 nM. For the same compound, on AeOBP22 [3] (setting [7]), the Kd was found to be 104 ± 30 nM. On to `CCCCC/C=C\C/C=C\C/C=C\C/C=C\CCCC(=O)O` [C20:4, arachidonic acid], for which, on AeOBP22 [2], the “binding to AeOBP22 judged by NMR” value is “binding occurs with high affinity”. Further, the Ki on AeOBP22 [3] turned out to be 286 ± 29 nM. Moreover, on AeOBP22 [3] (setting [7]), the Kd came to 286 ± 29 nM. As for `CCCCCCCCCCCC(=O)Nc1ccc2c(c1)C(=O)OC21c2ccc(O)cc2Oc2cc(O)ccc21` [DAF, 5-(N-dodecanoyl)-amino-fluorescein], the Kd on AeOBP22 [4] (HEPES pH 8.1, 25 °C, ± s.d., read-out: KD (nM) for binding of DAF to AeOBP22) worked out at 1190 ± 261 nM; on AeOBP22 [4] (read-out: KD of DAF for AeOBP22), 1190 nM. At AeOBP22 [4] (emission maximum 513 nm), the “quenching of DAF fluorescence upon addition of AeOBP22 (reduction from maximal intensity)” value is reported as ~ 75%. As for `O=Cc1ccccc1` [benzaldehyde], at AeOBP22 [2], the “ligand concentration at which large NMR chemical shift changes occur” value was above 1 mM and the “binding to AeOBP22 judged by NMR” value is on record as “binding is weak”. The like results for `CC(C)=CCCC(C)CCO` (centres unmarked) [citronellol] were, in that order, above 1 mM and “binding is weak”. The like results for `CC(C)=CCC/C(C)=C/CO` [geraniol] were, in that order, above 1 mM and “binding is weak”. With `CC/C=C\C/C=C\C/C=C\CCCCCCCC(=O)O` [αC18:3, a-Linoleic acid C18:3 (D9,12,15)], the Ki at AeOBP22 [5] (pH 5, n = 2, read-out: KI (dissociation constant of the competitor) at pH 5) was 42 ± 14 nM; on AeOBP22 [3] (setting [8]), 52 ± 8 nM. For the same compound, the Kd was 42 ± 14 nM on AeOBP22 [5] (pH 5.0, ± s.d., n = 2, read-out: KD (nM) for binding of fatty acid to AeOBP22 at pH 5.0); 52 ± 8 nM at AeOBP22 [5] (pH 6.5 as printed, read-out: binding affinity at pH 6.5 (as printed in text)); 52 ± 8 nM at AeOBP22 [3] (setting [6]). With `CCCCC/C=C\C/C=C\C/C=C\CCCCC(=O)O` [γC18:3, g-Linoleic acid C18:3 (D6 ,9,12)], the Kd at AeOBP22 [3] (setting [6]) stood at 111 ± 27 nM. Moreover, the Ki on AeOBP22 [3] (setting [8]) was 111 ± 27 nM. For Eicosenoic acid [C20:1], at AeOBP22 [3] (setting [6]), the Kd came out at 102 ± 16 nM. Also, the Ki at AeOBP22 [3] (setting [8]) is 102 ± 16 nM.

Values taken from publication PMC7039890, “Aedes aegypti Odorant Binding Protein 22 selectively binds fatty acids through a conformational change in its C-terminal tail” (Scientific Reports, 2020).
